Measured values: PMC4303209, “A novel phosphatidylinositol 3-kinase (PI3K) inhibitor directs a potent FOXO-dependent, p53-independent cell cycle arrest phenotype characterized by the differential induction of a subset of FOXO-regulated genes” (Breast Cancer Research : BCR, 2014)

Test system: MCF-7 breast cancer cells
Assay: Microarray gene expression analysis (Agilent whole human genome 4 x 44K; compound vs DMSO, LIMMA log2 fold change)
Type: cell-based
Details: cell cycle genes

Compound: Cn1ncc2c(N3CCOCC3)nc(-c3cccc(O)c3)nc21 [ETP-45658]
- TRIAP1 log2FC (Gene 51499): -0.820
- DTL log2FC (Gene 51514): 0.044
- SIRT7 log2FC (Gene 51547): 0.404
- CINP log2FC (Gene 51550): -0.074
- GINS2 log2FC (Gene 51659): -0.721
- NUP54 log2FC (Gene 53371): 0.683
- PELO log2FC (Gene 53918): -0.595
- WNT4 log2FC (Gene 54361): -0.709
- ANLN log2FC (Gene 54443): 0.699
- FBXW5 log2FC (Gene 54461): -0.054
- FAM64A log2FC (Gene 54478): 0.090
- DDX4 log2FC (Gene 54514): -0.146
- BTG4 log2FC (Gene 54766): 0.249
- NDE1 log2FC (Gene 54820): 0.535
- NSUN2 log2FC (Gene 54888): -0.186
- TTC19 log2FC (Gene 54902): 0.753
- TXNL4B log2FC (Gene 54957): 0.617
- BANP log2FC (Gene 54971): -0.168
- AURKAIP1 log2FC (Gene 54998): -0.353
- PHIP log2FC (Gene 55023): 1.243
- USP47 log2FC (Gene 55031): 0.762
- ZWILCH log2FC (Gene 55055): 0.619
- PIWIL2 log2FC (Gene 55124): -0.029
- CEP192 log2FC (Gene 55125): 0.534
- CDCA8 log2FC (Gene 55143): -0.107
- RFWD3 log2FC (Gene 55159): -0.597
- CEP55 log2FC (Gene 55165): 1.059
- CENPQ log2FC (Gene 55166): 0.796
- RIF1 log2FC (Gene 55183): 0.443
- ARL8B log2FC (Gene 55207): 0.686
- RCBTB1 log2FC (Gene 55213): 0.799
- CCDC87 log2FC (Gene 55231): -0.125
- STEAP3 log2FC (Gene 55240): -0.569
- MNS1 log2FC (Gene 55329): 0.765
- MCM10 log2FC (Gene 55388): -0.683
- SMPD3 log2FC (Gene 55512): -0.280
- TRIM36 log2FC (Gene 55521): 0.705
- RBM38 log2FC (Gene 55544): -0.536
- PRR5 log2FC (Gene 55615): 0.335
- PRPF40A log2FC (Gene 55660): 1.175
- CEP72 log2FC (Gene 55722): 0.344
- CHFR log2FC (Gene 55743): -0.026
- NUP133 log2FC (Gene 55746): 0.409
- CCAR1 log2FC (Gene 55749): 0.836
- CDK5RAP2 log2FC (Gene 55755): 0.516
- PCID2 log2FC (Gene 55795): 0.322
- CENPN log2FC (Gene 55839): 0.469
- PPP2R2D log2FC (Gene 55844): 0.037
- HDAC8 log2FC (Gene 55869): -0.325
- PBK log2FC (Gene 55872): 0.522
- BIN3 log2FC (Gene 55909): -0.746
- ERBB2IP log2FC (Gene 55914): 1.051
- RCC2 log2FC (Gene 55920): -0.248
- KLHL9 log2FC (Gene 55958): 0.133
- TEX11 log2FC (Gene 56159): -0.066
- TDRD1 log2FC (Gene 56165): 0.246
- PARD3 log2FC (Gene 56288): 0.418
- RPRM log2FC (Gene 56475): -0.078
- CYP26B1 log2FC (Gene 56603): 0.090
- SPIRE1 log2FC (Gene 56907): 0.377
- SMARCAD1 log2FC (Gene 56916): 0.653
- PRDM9 log2FC (Gene 56979): 0.085
- KIF15 log2FC (Gene 56992): 1.353
- PDXP log2FC (Gene 57026): -1.027
- PCBP4 log2FC (Gene 57060): -0.519
- CASC5 log2FC (Gene 57082): 0.187
- PCNP log2FC (Gene 57092): 0.687
- NUP107 log2FC (Gene 57122): 0.862
- CHMP1B log2FC (Gene 57132): 0.826
- PAK7 log2FC (Gene 57144): 0.396
- CSRP2BP log2FC (Gene 57325): 0.412
- TTYH1 log2FC (Gene 57348): -0.189
- BIRC6 log2FC (Gene 57448): 0.155
- MTA3 log2FC (Gene 57504): 0.345
- HACE1 log2FC (Gene 57531): 0.593
- TAOK1 log2FC (Gene 57551): 0.386
- USP37 log2FC (Gene 57695): 0.513
- FANCM log2FC (Gene 57697): 0.486
- CCNB1IP1 log2FC (Gene 57820): 1.174
- RHOU log2FC (Gene 58480): 1.289
- OVOL2 log2FC (Gene 58495): -0.133
- AVPI1 log2FC (Gene 60370): 0.391
- RINT1 log2FC (Gene 60561): 0.804
- FAM111A log2FC (Gene 63901): 0.319
- DMRTC2 log2FC (Gene 63946): -0.047
- CLSPN log2FC (Gene 63967): 0.066
- TSPYL2 log2FC (Gene 64061): -0.073
- DPEP3 log2FC (Gene 64180): -0.246
- RFWD2 log2FC (Gene 64326): 0.063
- CENPH log2FC (Gene 64946): 0.860
- MRPL41 log2FC (Gene 64975): -0.545
- INTS3 log2FC (Gene 65123): -0.455
- PHACTR4 log2FC (Gene 65979): 0.399
- BOLL log2FC (Gene 66037): -0.038
- MIS12 log2FC (Gene 79003): -0.429
- CENPM log2FC (Gene 79019): -0.105
- NUP37 log2FC (Gene 79023): 0.431
- ZNF655 log2FC (Gene 79027): 0.893
- CENPO log2FC (Gene 79172): -0.787
- E2F8 log2FC (Gene 79733): 0.114
- FBXO31 log2FC (Gene 79791): -0.232
- CSPP1 log2FC (Gene 79848): 0.754
- NEK11 log2FC (Gene 79858): 0.568
- MAP9 log2FC (Gene 79884): 1.193
- NUP85 log2FC (Gene 79902): 0.292
- CEP76 log2FC (Gene 79959): 0.323
- CENPT log2FC (Gene 80152): -0.175
- DBF4B log2FC (Gene 80174): -0.579
- CEP290 log2FC (Gene 80184): 0.854
- CEP63 log2FC (Gene 80254): 0.741
- CDK5RAP3 log2FC (Gene 80279): -0.091
- CEP70 log2FC (Gene 80321): 0.756
- TUBB1 log2FC (Gene 81027): -0.436
- NDEL1 log2FC (Gene 81565): -0.111
- FAM83D log2FC (Gene 81610): -0.088
- CAB39L log2FC (Gene 81617): 0.106
- CCNL2 log2FC (Gene 81669): 0.230
- CABLES2 log2FC (Gene 81928): -0.937
- KIF18A log2FC (Gene 81930): 1.204
- SESN2 log2FC (Gene 83667): -0.701
- SETDB2 log2FC (Gene 83852): 1.285
- GSG2 log2FC (Gene 83903): -0.491
- RASSF4 log2FC (Gene 83937): 0.185
- MND1 log2FC (Gene 84057): 0.497
- HORMAD1 log2FC (Gene 84072): 0.519
- USP44 log2FC (Gene 84101): -0.061
- CEP78 log2FC (Gene 84131): 0.550
- GINS4 log2FC (Gene 84296): -0.398
- RAB11FIP4 log2FC (Gene 84440): 0.575
- LZTS2 log2FC (Gene 84445): 0.831
- BRSK1 log2FC (Gene 84446): -0.038
- SPIRE2 log2FC (Gene 84501): 0.454
- PARD6B log2FC (Gene 84612): 0.731
- PPP1R9B log2FC (Gene 84687): -0.425
- SPATA22 log2FC (Gene 84690): -0.013
- BEX2 log2FC (Gene 84707): 0.736
- PSRC1 log2FC (Gene 84722): 0.114
- KLHL22 log2FC (Gene 84861): 0.165
- TBRG1 log2FC (Gene 84897): 0.370
- MASTL log2FC (Gene 84930): 0.592
- LSM10 log2FC (Gene 84967): -1.152
- CCNB3 log2FC (Gene 85417): 0.077
- LRRCC1 log2FC (Gene 85444): 0.773
- DIXDC1 log2FC (Gene 85458): 0.062
- PNPT1 log2FC (Gene 87178): 0.445
- LMLN log2FC (Gene 89782): 0.783
- KLHL13 log2FC (Gene 90293): 0.112
- GADD45GIP1 log2FC (Gene 90480): -0.402
- SLFN11 log2FC (Gene 91607): -0.432
- CENPL log2FC (Gene 91687): 0.066
- CABLES1 log2FC (Gene 91768): 1.627
- SYCE1 log2FC (Gene 93426): -0.072
- ACTR8 log2FC (Gene 93973): 0.366
- TP53INP1 log2FC (Gene 94241): 0.920
- CDCA5 log2FC (Gene 113130): 0.030
- TUBGCP5 log2FC (Gene 114791): 0.520
